Our source for the Kd values is patent US6465613B1, “Hydrophilic somatostatin analogs” (Tulane University, priority 1998, dated 2002).

The term Kd denotes the concentration at which binding is half-saturated. The low end stands for tighter binding, the high end for weaker binding.

In assay [1] the target is T1, human SRIF receptor type 2 (Homo sapiens, UniProt P30874).
T1 construct: expressed in transfected cells; host or cells: CHO-K1 cells (membranes)
As to the kind of experiment: Radioligand binding assay, CHO-K1 membranes, 125I-MK-678. The following applies: CHO-K1 cell membranes. The protocol:
(§1) For this study, cell membranes were obtained from homogenates of CHO-K1 cells (Chinese hamster ovary cells) ectopically expressing one of the five known somatostatin receptor subtypes (the cells were transfected with cDNA encoding a somatostatin receptor subtype, according to standard methods (see, e.g., Ausubel et al., Current Protocols in Molecular Biology, John Wiley & Sons, New York, N.Y., 1994)). […] The final assay volume was 0.3 ml. Incubations were terminated by rapid filtration through GF/C filters pre-soaked in 0.3% polyethylenimine using a 2 Brandel rapid filtration module (48 wells each). Each tube and filter was then washed 3 times with 5 ml aliquots of cold buffer.

The target of assay [2] is T2, human SRIF receptor type 5 (Homo sapiens, UniProt P35346).
T2 construct: expressed in transfected cells; host or cells: CHO-K1 cells (membranes)
T2 sequence (P35346 whole entry): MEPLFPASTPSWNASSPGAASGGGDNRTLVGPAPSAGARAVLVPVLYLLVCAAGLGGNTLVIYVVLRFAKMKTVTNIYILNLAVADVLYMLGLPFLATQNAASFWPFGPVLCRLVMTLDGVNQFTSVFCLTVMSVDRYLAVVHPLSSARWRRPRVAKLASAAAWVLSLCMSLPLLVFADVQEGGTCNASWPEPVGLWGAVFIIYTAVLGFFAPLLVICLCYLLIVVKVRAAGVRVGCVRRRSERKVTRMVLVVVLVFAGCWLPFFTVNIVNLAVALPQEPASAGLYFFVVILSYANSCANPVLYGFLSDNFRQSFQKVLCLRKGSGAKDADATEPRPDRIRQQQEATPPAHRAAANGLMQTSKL
As to the kind of experiment: Radioligand binding assay, CHO-K1 membranes, 125I-Tyr11-SRIF. The note with it: CHO-K1 cell membranes, 0.05 nM 125I-Tyr11-SRIF. On the procedure: as §1

Assay [3] addresses T3, human SRIF receptor type 4 (Homo sapiens, UniProt P31391).
T3 construct: expressed in transfected cells; host or cells: CHO-K1 cells (membranes)
The assay is described as above. The following applies: CHO-K1 cell membranes, 0.05 nM 125I-Tyr11-SRIF. The protocol: as §1

In assay [4] the target is T4, human SRIF receptor type 1 (Homo sapiens, UniProt P30872).
T4 construct: expressed in transfected cells; host or cells: CHO-K1 cells (membranes)
T4 sequence (P30872 whole entry): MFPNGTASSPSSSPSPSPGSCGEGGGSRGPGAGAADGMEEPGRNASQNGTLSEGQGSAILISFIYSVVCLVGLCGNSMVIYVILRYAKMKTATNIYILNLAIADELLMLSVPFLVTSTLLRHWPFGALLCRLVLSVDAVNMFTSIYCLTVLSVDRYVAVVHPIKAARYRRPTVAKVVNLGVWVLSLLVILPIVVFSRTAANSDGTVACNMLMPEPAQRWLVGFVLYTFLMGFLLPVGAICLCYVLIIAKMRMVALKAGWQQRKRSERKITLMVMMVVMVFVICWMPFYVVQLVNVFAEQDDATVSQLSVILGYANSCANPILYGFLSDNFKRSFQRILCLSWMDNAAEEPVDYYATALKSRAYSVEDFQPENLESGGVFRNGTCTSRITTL
The description is as above. The note with it: CHO-K1 cell membranes, 0.05 nM 125I-Tyr11-SRIF. On the procedure:
as §1

The target in assay [5] is T5, human SRIF receptor type 3 (Homo sapiens, UniProt P32745).
T5 construct: expressed in transfected cells; host or cells: CHO-K1 cells (membranes)
T5 sequence (P32745 whole entry): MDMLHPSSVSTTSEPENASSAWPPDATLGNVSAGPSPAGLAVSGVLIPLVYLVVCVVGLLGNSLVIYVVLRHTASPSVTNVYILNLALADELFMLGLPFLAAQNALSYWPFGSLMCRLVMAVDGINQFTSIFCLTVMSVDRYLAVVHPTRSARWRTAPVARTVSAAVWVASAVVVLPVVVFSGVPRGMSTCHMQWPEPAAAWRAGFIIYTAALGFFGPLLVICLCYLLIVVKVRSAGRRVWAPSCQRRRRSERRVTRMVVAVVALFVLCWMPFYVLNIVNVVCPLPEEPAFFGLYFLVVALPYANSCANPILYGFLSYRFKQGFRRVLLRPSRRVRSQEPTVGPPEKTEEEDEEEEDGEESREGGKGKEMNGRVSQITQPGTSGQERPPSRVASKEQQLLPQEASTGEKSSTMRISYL
The description is as above. The following applies: CHO-K1 cell membranes, 0.05 nM 125I-Tyr11-SRIF. The protocol: as §1

Positions of bridges follow the written chain, without caps; N, C: chain ends. Non-standard residues stand in square brackets, D forms with d. Residues, ends and D or L forms follow the SMILES beside them. Phe(4-NH2) = Nc1ccc(C[C@H](N)C(=O)O)cc1; Dab = NCC[C@H](N)C(=O)O Bounds are passed on as bounds.

T3 sequence (P31391 whole entry): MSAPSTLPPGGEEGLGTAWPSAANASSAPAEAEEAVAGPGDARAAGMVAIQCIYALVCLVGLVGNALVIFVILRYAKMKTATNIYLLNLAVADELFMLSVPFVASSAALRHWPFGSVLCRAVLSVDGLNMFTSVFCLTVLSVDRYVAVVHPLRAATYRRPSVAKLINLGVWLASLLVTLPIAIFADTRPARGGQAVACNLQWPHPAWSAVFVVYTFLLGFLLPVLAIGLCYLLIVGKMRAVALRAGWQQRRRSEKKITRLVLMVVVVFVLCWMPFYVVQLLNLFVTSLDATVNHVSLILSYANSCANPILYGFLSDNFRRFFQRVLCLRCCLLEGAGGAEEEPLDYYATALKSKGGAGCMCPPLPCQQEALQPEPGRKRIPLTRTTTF
T1 sequence (P30874 whole entry): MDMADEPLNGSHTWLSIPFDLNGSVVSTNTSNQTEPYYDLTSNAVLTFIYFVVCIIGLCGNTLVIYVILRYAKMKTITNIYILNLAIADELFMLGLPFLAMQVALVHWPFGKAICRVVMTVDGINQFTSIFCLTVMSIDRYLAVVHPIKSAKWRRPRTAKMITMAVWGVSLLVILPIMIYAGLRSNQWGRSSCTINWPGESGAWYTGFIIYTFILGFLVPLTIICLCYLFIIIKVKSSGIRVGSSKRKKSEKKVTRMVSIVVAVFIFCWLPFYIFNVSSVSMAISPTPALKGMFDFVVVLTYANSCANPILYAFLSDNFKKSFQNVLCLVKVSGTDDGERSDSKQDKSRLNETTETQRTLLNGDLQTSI

As for `C[C@@H](O)[C@H](NC(=O)[C@@H]1CSSC[C@H](NC(=O)[C@H](CCCCN)NC(=O)[C@H](Cc2ccc(O)cc2)NC(=O)[C@H](CCCCN)NC(=O)[C@H](Cc2ccc(O)cc2)NC(=O)[C@H](N)CCCCN)C(=O)N[C@@H](Cc2ccccc2)C(=O)N[C@H](Cc2c[nH]c3ccccc23)C(=O)N[C@@H](CCCCN)C(=O)N[C@@H]([C@@H](C)O)C(=O)N1)C(N)=O` [JF-05-59, D-Lys-Tyr-Lys-Tyr-Lys-c[Cys-Phe-D-Trp-Lys-Thr-Cys]-Thr-NH2] (H-[dK]YKYKCF[dW]KTCT-NH2; disulfide 6-11), the dissociation constant Kd is 0.36 nM in assay [1]; 13.4 nM in assay [2]; 515 nM in assay [3]; 4.1 nM in assay [4]; 6.4 nM in assay [5].

In the case of `C[C@@H](O)[C@H](NC(=O)[C@@H]1CSSC[C@H](NC(=O)[C@H](CCCNC(=N)N)NC(=O)[C@H](Cc2ccc(O)cc2)NC(=O)[C@H](CCCNC(=N)N)NC(=O)[C@H](Cc2ccc(O)cc2)NC(=O)[C@H](N)CCCNC(=N)N)C(=O)N[C@@H](Cc2ccccc2)C(=O)N[C@H](Cc2c[nH]c3ccccc23)C(=O)N[C@@H](CCCCN)C(=O)N[C@@H]([C@@H](C)O)C(=O)N1)C(N)=O` [JF-05-81, D-Arg-Tyr-Arg-Tyr-Arg-c[Cys-Phe-D-Trp-Lys-Thr-Cys]-Thr-NH2] (H-[dR]YRYRCF[dW]KTCT-NH2; disulfide 6-11), the Kd in assay [1] is 0.28 nM; in assay [2], 3.3 nM; in assay [3], > 1000 nM; in assay [4], 12.1 nM; in assay [5], 14.6 nM.

For `C[C@@H](O)[C@H](NC(=O)[C@@H]1CSSC[C@H](NC(=O)[C@H](CCCCN)NC(=O)[C@H](Cc2ccc(O)cc2)NC(=O)[C@@H](CCCCN)NC(=O)[C@@H](Cc2ccc(O)cc2)NC(=O)[C@H](CCCCN)NC(=O)[C@H](Cc2ccc(O)cc2)NC(=O)[C@H](N)CCCCN)C(=O)N[C@@H](Cc2ccccc2)C(=O)N[C@H](Cc2c[nH]c3ccccc23)C(=O)N[C@@H](CCCCN)C(=O)N[C@@H]([C@@H](C)O)C(=O)N1)C(N)=O` [JF-05-85, D-Lys-Tyr-Lys-D-Tyr-D-Lys-Tyr-Lys-c[Cys-Phe-D-Trp-Lys-Thr-Cys]-Thr-NH2] (H-[dK]YK[dY][dK]YKCF[dW]KTCT-NH2; disulfide 8-13), the Kd in assay [1] was 0.38 nM; in assay [2], 17.3 nM; in assay [3], 369 nM; in assay [4], 16.9 nM; in assay [5], 15.1 nM.

Take `C[C@@H](O)[C@H](NC(=O)[C@@H]1CSSC[C@H](NC(=O)[C@H](CCCCN)NC(=O)[C@H](Cc2ccc(N)cc2)NC(=O)[C@H](CCCCN)NC(=O)[C@H](Cc2ccc(N)cc2)NC(=O)[C@H](N)CCCCN)C(=O)N[C@@H](Cc2ccccc2)C(=O)N[C@H](Cc2c[nH]c3ccccc23)C(=O)N[C@@H](CCCCN)C(=O)N[C@@H]([C@@H](C)O)C(=O)N1)C(N)=O` [JF-06-31, D-Lys-Pap-Lys-Pap-Lys-c[Cys-Phe-D-Trp-Lys-Thr-Cys]-Thr-NH2] (H-[dK][Phe(4-NH2)]K[Phe(4-NH2)]KCF[dW]KTCT-NH2; disulfide 6-11): the Kd is 0.09 nM in assay [1]; 3 nM in assay [2]; > 1000 nM in assay [3]; 1.5 nM in assay [4]; 20.8 nM in assay [5].

As for `C[C@@H](O)[C@H](NC(=O)[C@@H]1CSSC[C@H](NC(=O)[C@@H](CCCCN)NC(=O)[C@@H](Cc2ccc(O)cc2)NC(=O)[C@@H](CCCCN)NC(=O)[C@@H](Cc2ccc(O)cc2)NC(=O)[C@H](N)CCCCN)C(=O)N[C@@H](Cc2ccccc2)C(=O)N[C@H](Cc2c[nH]c3ccccc23)C(=O)N[C@@H](CCCCN)C(=O)N[C@@H]([C@@H](C)O)C(=O)N1)C(N)=O` [JF-06-44, D-Lys-D-Tyr-D-Lys-D-Tyr-D-Lys-c[Cys-Phe-D-Trp-Lys-Thr-Cys]-Thr-NH2] (H-[dK][dY][dK][dY][dK]CF[dW]KTCT-NH2; disulfide 6-11), the Kd stood at 0.87 nM in assay [1], 17 nM in assay [2], 3.8 nM in assay [4] and 0.91 nM in assay [5].

As to `C[C@@H](O)[C@H](NC(=O)[C@@H]1CSSC[C@H](NC(=O)[C@H](CCN)NC(=O)[C@H](Cc2ccc(O)cc2)NC(=O)[C@H](CCN)NC(=O)[C@H](Cc2ccc(O)cc2)NC(=O)[C@@H](N)CCN)C(=O)N[C@@H](Cc2ccccc2)C(=O)N[C@H](Cc2c[nH]c3ccccc23)C(=O)N[C@@H](CCCCN)C(=O)N[C@@H]([C@@H](C)O)C(=O)N1)C(N)=O` [JF-06-45, Dab-Tyr-Dab-Tyr-Dab-c[Cys-Phe-D-Trp-Lys-Thr-Cys]-Thr-NH2] (H-[Dab]Y[Dab]Y[Dab]CF[dW]KTCT-NH2; disulfide 6-11), the Kd in assay [1] is 1.37 nM; in assay [2] it was 115 nM; in assay [3], > 1000 nM; in assay [4] it was 6.2 nM; in assay [5], 22.7 nM.

Consider `C[C@@H](O)[C@H](NC(=O)[C@@H]1CSSC[C@H](NC(=O)[C@@H](CCCCN)NC(=O)[C@@H](Cc2ccc(O)cc2)NC(=O)[C@H](N)CCCCN)C(=O)N[C@@H](Cc2ccccc2)C(=O)N[C@H](Cc2c[nH]c3ccccc23)C(=O)N[C@@H](CCCCN)C(=O)N[C@@H]([C@@H](C)O)C(=O)N1)C(N)=O` [JF-06-50, D-Lys-D-Tyr-D-Lys-c[Cys-Phe-D-Trp-Lys-Thr-Cys]-Thr-NH2] (H-[dK][dY][dK]CF[dW]KTCT-NH2; disulfide 4-9), for which the dissociation constant (Kd) in assay [1] was 1.96 nM; in assay [2], 20 nM; in assay [3], > 1000 nM; in assay [4] it was 20.9 nM; in assay [5], 4.87 nM.
